According to paper PMC10829512, “Transport of metformin metabolites by guanidinium exporters of the small multidrug resistance family” (The Journal of General Physiology, 2024):

Assays:
[1] = biological target: Gdx-pPro (Citrobacter freundii, UniProt O69279); settings: 2 mM substrate
[2] = biological target: Gdx-Eco (Escherichia coli, UniProt P69937); test: SSM electrophysiology of Gdx-Eco proteoliposomes; assay type: biochemical; settings: 2 mM substrate
Description: (§1) Gdx-Clo ([Kermani et al., 2018]), Gdx-Eco ([Kermani et al., 2018]), EmrE ([Kermani et al., 2022]), and Gdx-pAmi ([Martinez-Vaz et al., 2022]) construct design and purification have been described previously. […] Proteins were overexpressed in C41(DE3). Expression was induced by the addition of 0.2 mM IPTG for 3 h. Cells were lysed and extracted with 2% n-decyl-β-D-maltoside (DM) for 2 h. After pelleting insoluble cell debris, proteins were purified using cobalt affinity resin. Wash buffer contained 25 mM Tris, pH 8.5, 150 mM NaCl, and 5 mM DM. For Gdx-pAmi, NaCl concentration was increased to 500 mM NaCl. The affinity column was washed with wash buffer, then wash buffer with 10 mM imidazole, prior to elution with wash buffer with 400 mM imidazole. For Gdx-Clo and Gdx-Eco, histidine tags were cleaved with LysC (200 ng/mg of protein; 2 h at room temperature; New England Biolabs), and for all others, histidine tags were cleaved with thrombin (1 U/mg of protein, overnight at room temperature; MilliporeSigma). Proteins were further purified using a gel filtration Superdex200 column (Cytiva) equilibrated with 100 mM NaCl, 10 mM N-2-hydroxyethylpiperazine-N′-2-ethanesulfonic acid (HEPES), pH 7.5, and 5 mM DM. Purified proteins were stored at 4°C for up to 5 days before detergent binding assays. To prepare proteoliposomes for electrophysiology assays, purified protein was mixed with E. coli polar lipid extract (10 mg/ml; Avanti Polar Lipids) solubilized with 35 mM 3-[(3-cholamidopropyl)dimethylammonio]-1-propanesulfonate (CHAPS) at a protein to lipid ratio of 40 μg SMR transporter: mg lipid (1:370 protein:lipid molar ratio) prior to detergent removal by dialysis. For preparations that included Fluc-Bpe, liposomes were reconstituted with a molar ratio of 0.3 Fluc-Bpe:1 SMRGdx: 5920 lipid (1 μg Fluc-Bpe and ∼2.5 μg SMRGdx per mg lipid). For liposome transport assays, proteoliposomes were prepared similarly, except that a 2:1 mixture of 1-palmitoyl, 2-oleoylphosphatidylethanolamine (POPE) and 1-palmitoyl, 2-oleoylphosphatidylglycerol (POPG) (10 mg/ml; Avanti Polar Lipids) was used with 0.2 μg protein/mg lipid. Proteoliposomes were stored at −80°C until use.
(§2) SSM experiments were performed using SURFE^2R N1 instrument (Nanion Technologies). Sensors were prepared with a 1,2-diphytanoyl-sn-glycero-3-phosphocholine (DPhPC) lipid monolayer according to published protocols ([Bazzone et al., 2017]). Each sensor’s capacitance and conductance were verified before use (<80 nF capacitance, <50 nS conductance) using Nanion software protocols. Proteoliposome stock was diluted 1:25 in assay buffer (100 mM KCl, 100 mM KPO4, pH 7.5) prior to adsorption to the DPhPC monolayer. For substrate screening experiments, reference substrate samples (Gdm^+ for SMRGdx, and TPA^+ for SMRQac) were checked periodically to test for the stability of the sensor; if the current amplitude of the reference compound differed by >10% on one sensor, it indicated the desorption of liposomes, and the sensor was not used for further experiments. For every SSM electrophysiology experiment, we used the same general solution exchange protocol: after 2 s perfusion with a non-activating solution, we perfused substrate-containing buffer for 2 s and then returned to the equilibrium condition with a 4 s perfusion of non-activating buffer. For experiments with the S104C/A70C crosslinked variant, reducing conditions were established by the addition of 2.5 mM tris(2-carboxyethyl)phosphine (TCEP) to the activating and non-activating buffers.
(§3) We screened a series of metformin metabolites for transport using SSM electrophysiology (Fig. 2, A and B).

[3] = biological target: T1, Gdx-Clo (Clostridiales bacterium oral taxon 876, UniProt U2EQ00); test: SSM electrophysiology of Gdx-Clo proteoliposomes; assay type: biochemical, Clostridales oral taxon 876; settings: 2 mM substrate
T1 sequence (U2EQ00 1-105): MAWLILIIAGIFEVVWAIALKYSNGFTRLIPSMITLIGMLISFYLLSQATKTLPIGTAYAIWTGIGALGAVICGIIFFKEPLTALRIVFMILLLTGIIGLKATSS
Description: as §1, §2, §3

[4] = tested on: Gdx-pAmi; test: SSM electrophysiology of Gdx-pAmi proteoliposomes; assay type: biochemical, Aminobacter sp. MET; settings: 2 mM substrate
Description: as §1, §2, §3

[5] = tested on: N=C(N)N; test: purified protein, by the assay type; settings: other: Gdx-pPro, pH 7.5, mean ± SEM

Sequence of Gdx-pPro (O69279 2-105): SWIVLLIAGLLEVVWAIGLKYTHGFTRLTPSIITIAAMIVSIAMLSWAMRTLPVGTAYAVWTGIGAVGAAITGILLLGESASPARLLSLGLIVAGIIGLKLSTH
Sequence of Gdx-Eco (P69937 whole entry): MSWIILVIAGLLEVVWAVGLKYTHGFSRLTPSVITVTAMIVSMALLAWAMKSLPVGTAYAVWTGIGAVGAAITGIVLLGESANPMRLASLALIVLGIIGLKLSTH

Molecule	Transport currents in substrate screen [1]	Transport currents in substrate screen [2]	Transport currents in substrate screen [3]	Transport currents in substrate screen [4]	Km [5] [µM]
CN(C)C(=N)N=C(N)N [Metformin, metformin]	currents barely above the detectable limit	currents barely above the detectable limit	currents barely above the detectable limit	currents barely above the detectable limit	
Gdx-pPro (Citrobacter freundii)					2900 ± 500
CCCCNC(=N)NC(=N)N [buformin]	transported	transported		transported	
CNC(=N)NC(=N)N [methylbiguanide]	transported	transported		transported	
